According to US7825090B2, “Use of ghrelin and unacylated ghrelin compositions for treating insulin resistance” (Alizé Pharma SAS, priority 2004, dated 2010):
“Also recorded” adds a separate entry of the source. No end group written: not given here. *: point of attachment. Octanoyl = CCCCCCCC(=O)*

How the values were obtained:
[1] = Serum total and acylated ghrelin concentrations after i.v. bolus injection (radioimmunoassay); set-up: species or system human; conditions: in vivo, iv
Text: (§1) Eight male subjects with a pituitary insufficiency but otherwise healthy, were asked to participate (range 21-69 yrs (age 55±10; mean±standard error of mean or SEM)) and a body mass index of 29.4±2.8 (mean±SEM). […] All subjects were admitted at the Clinical Research Unit. No alcoholic beverages were allowed from the day prior to admission until the end of the study. Also, all subjects were asked to skip the administration of their GH replacement every night prior to each of the 5 admission days. All subjects gave their written informed consent to participate in the study, which had been approved the hospital's Ethical Committee.
All subjects underwent the following five testing sessions, each after an overnight fast, in random order and at least 1 week apart: 1) placebo (saline 3 ml iv). 2) acylated ghrelin (Neosystem S.A.; Strasbourg, France; 1.0 μg/kg iv, using a bacterial filter system). […]
Acylated and total ghrelin concentrations were measured, using a commercially available radioimmunoassay (Linco research Inc. Missouri, USA). […] The lowest level of ghrelin that can be detected by this assay is […] when using a 100 μl sample size. […]
(§2) Differences between the several study days were calculated, using a Newman-Keuls Multiple Comparison one-way ANOVA test (GraphPad Prism 4 for Windows; GraphPad Inc. USA). […] Areas under the curve were calculated using the trapezoid rule.

GH deficient subjects [2] = experiment: Insulin sensitivity judged from areas under the curve of glucose, insulin and FFA (FIG. 8, FIG. 9); type: in vivo, human
Text: Eight male subjects with a pituitary insufficiency but otherwise healthy, were asked to participate (range 21-69 yrs (age 55±10; mean±standard error of mean or SEM)) and a body mass index of 29.4±2.8 (mean±SEM). […] All subjects were admitted at the Clinical Research Unit. No alcoholic beverages were allowed from the day prior to admission until the end of the study. Also, all subjects were asked to skip the administration of their GH replacement every night prior to each of the 5 admission days. All subjects gave their written informed consent to participate in the study, which had been approved the hospital's Ethical Committee. […] Insulin was assessed with a radioimmunoassay (Medgenix Diagnostics, Brussels, Belgium; intra- and interassay coefficient of variation (CV) 13.7 and 8.0% respectively). Glucose was assessed with an automatic hexokinase method (Roche, Almere, The Netherlands). Free fatty acids were determined with an enzymatic […] method (Wako Chemicals GmbH, Neuss, Germany; intra- and interassay CV 1.1 and 4.1% respectively). Differences between the several study days were calculated, using a Newman-Keuls Multiple Comparison one-way ANOVA test (GraphPad Prism 4 for Windows; GraphPad Inc. USA). […] Areas under the curve were calculated using the trapezoid rule.

GH deficient subjects [3] = experiment: Serum free fatty acid concentrations after i.v. AG, UAG, AG+GH or AG+UAG, before and after a standard lunch; type: in vivo, human; conditions: compounds administered 2-6 hrs before
Text: as §1, with “Committee. […]” for “Committee.”
(§3) Insulin was assessed with a radioimmunoassay (Medgenix Diagnostics, Brussels, Belgium; intra- and interassay coefficient of variation (CV) 13.7 and 8.0% respectively). Glucose was assessed with an automatic hexokinase method (Roche, Almere, The Netherlands). Free fatty acids were determined with an enzymatic […] method (Wako Chemicals GmbH, Neuss, Germany; intra- and interassay CV 1.1 and 4.1% respectively).
as §2

GH deficient subjects [4] = experiment: Serum glucose concentrations after i.v. AG, UAG, AG+GH or AG+UAG, before and after a standard lunch; type: in vivo, human; conditions: for effect on serum glucose levels after a standard lunch: GH deficient subjects; for effect on serum glucose levels: first two hours after i.v. administration, before lunch, fasting
Text: as §1
(§4) All subjects underwent the following five testing sessions, each after an overnight fast, in random order and at least 1 week apart: 1) placebo (saline 3 ml iv). 2) acylated ghrelin (Neosystem S.A.; Strasbourg, France; 1.0 μg/kg iv, using a bacterial filter system). 3) unacylated ghrelin (Neosystem S.A.; Strasbourg, France; 1.0 μg/kg iv, using a filter system). 4) acylated ghrelin (1.0 μg/kg iv) but this time after the normal GH replacement dose was administered 15 minutes before. 5) acylated ghrelin in combination with unacylated ghrelin (both 1.0 μg/kg iv, but via separate injection sites). All tests started in the morning at 09:30 am, 30′ after one or two indwelling catheters had been placed into an antecubital vein, kept patent by slow infusion of isotonic saline.
(§5) This meal was taken by all subjects all tests days.
as §3
(§6) Differences between the several study days were calculated, using a Newman-Keuls Multiple Comparison one-way ANOVA test (GraphPad Prism 4 for Windows; GraphPad Inc. USA). P-values <0.05 were considered significant. Areas under the curve were calculated using the trapezoid rule.

GH deficient subjects [5] = experiment: Serum insulin concentrations after i.v. AG, UAG, AG+GH or AG+UAG, before and after a standard lunch; type: in vivo, human; conditions: for effect on serum insulin levels after a standard lunch: GH deficient subjects; for effect on serum insulin levels: first two hours after i.v. administration, before lunch, fasting
Text: as §1, §4, §5, §3, §6

cloned cells = conditions: cited from earlier work
GH secretion = conditions: compared with Ghrelin-28; cited from earlier work

Row | Compound | effect on unacylated ghrelin levels [1] | duration of decrease in insulin sensitivity after administration (GH deficient subjects [2]; after administration of acylated ghrelin) | effect on insulin sensitivity (GH deficient subjects [2]; period following lunch, AUC (FIG. 9)) | effect on serum FFA levels after a standard lunch (GH deficient subjects [3]) | effect on serum glucose levels after a standard lunch (GH deficient subjects [4]) | effect on serum glucose levels (GH deficient subjects [4]) | effect on serum glucose levels (GH deficient subjects [4]; listed as acylated ghrelin) | effect on serum insulin levels after a standard lunch (GH deficient subjects [5]) | effect on serum insulin levels (GH deficient subjects [5]) | effect on serum glucose levels (GH deficient subjects [4]; listed as unacylated ghrelin) | Ca2+ fluxes (cloned cells) | induction of GH secretion (GH secretion)
1 | CCCCCCCC(=O)OC[C@H](NC(=O)[C@H](CO)NC(=O)CN)C(=O)N[C@@H](Cc1ccccc1)C(=O)N[C@@H](CC(C)C)C(=O)N[C@@H](CO)C(=O)N1CCC[C@H]1C(=O)N[C@@H](CCC(=O)O)C(=O)N[C@@H](Cc1cnc[nH]1)C(=O)N[C@@H](CCC(N)=O)C(=O)N[C@@H](CCCNC(=N)N)C(=O)N[C@H](C(=O)N[C@@H](CCC(N)=O)C(=O)N[C@@H](CCC(N)=O)C(=O)N[C@@H](CCCNC(=N)N)C(=O)N[C@@H](CCCCN)C(=O)N[C@@H](CCC(=O)O)C(=O)N[C@@H](CO)C(=O)N[C@@H](CCCCN)C(=O)N[C@@H](CCCCN)C(=O)N1CCC[C@H]1C(=O)N1CCC[C@H]1C(=O)N[C@@H](C)C(=O)N[C@@H](CCCCN)C(=O)N[C@@H](CC(C)C)C(=O)N[C@@H](CCC(N)=O)C(=O)N1CCC[C@H]1C(=O)N[C@@H](CCCNC(=N)N)C(=O)O)C(C)C [AG] | induces an acute increase in unacylated ghrelin levels | at least 6 hours | decreases insulin sensitivity, compared to placebo | significantly increased FFA levels after lunch, compared to placebo | increase serum glucose levels significantly | induces a significant hyperglycemia | immediately increases glucose and insulin levels | increased insulin levels the most | immediately increases glucose and insulin levels |  |  | 
2 | CC(C)C[C@H](NC(=O)[C@H](CCCCN)NC(=O)[C@H](C)NC(=O)[C@@H]1CCCN1C(=O)[C@@H]1CCCN1C(=O)[C@H](CCCCN)NC(=O)[C@H](CCCCN)NC(=O)[C@H](CO)NC(=O)[C@H](CCC(=O)O)NC(=O)[C@H](CCCCN)NC(=O)[C@H](CCCNC(=N)N)NC(=O)[C@H](CCC(N)=O)NC(=O)[C@H](CCC(N)=O)NC(=O)[C@@H](NC(=O)[C@H](CCCNC(=N)N)NC(=O)[C@H](CCC(N)=O)NC(=O)[C@H](Cc1c[nH]cn1)NC(=O)[C@H](CCC(=O)O)NC(=O)[C@@H]1CCCN1C(=O)[C@H](CO)NC(=O)[C@H](CC(C)C)NC(=O)[C@H](Cc1ccccc1)NC(=O)[C@H](CO)NC(=O)[C@H](CO)NC(=O)CN)C(C)C)C(=O)N[C@@H](CCC(N)=O)C(=O)N1CCC[C@H]1C(=O)N[C@@H](CCCNC(=N)N)C(=O)O [UAG] |  |  |  | could not be observed | increase serum glucose levels significantly; also recorded: increases serum glucose levels significantly more than AG | to a lesser extent, UAG, induces a significant hyperglycemia |  | increased insulin levels the most, followed UAG | This does not occur | This does not occur |  | 
3 | Gly-Ser-[octanoyl]Ser-Phe-Leu-Ser-Pro-Glu-His-Gln-Arg-Val-Gln-Arg-Lys-Glu-Ser-Lys-Lys-Pro-Pro-Ala-Lys-Leu-Gln-Pro-Arg (GSS(Octanoyl)FLSPEHQRVQRKESKKPPAKLQPR; listed as Homo sapiens) [des Gln-14 ghrelin] |  |  |  |  |  |  |  |  |  |  | elicits Ca^2+ fluxes in cloned cells | induces GH secretion with similar potency as Ghrelin-28
